The values below come from patent US12558342B2, “2-[2-({12,12-dimethyl-4-oxo-6-phenyl-3,11-dioxatricyclo[8.4.0.0,2,7]tetradeca-1,5,7,9-tetraen-8-yl}oxy)acetamido]benzamide and derivatives as inhibitor of clock:bmal1 interaction for the treatment of circadian rhythm diseases and disorders” (KOC UNIVERSITESI, priority 2019, dated 2026).

Each structure is given as a SMILES string.

Experiment [1] relates to PER2, NPAS2, BMAL1 and CRY1. Briefly: Cytosol-nuclear fractionation of U2OS cells, other clock proteins. The class given is cell-based, human. As to conditions: 20 μM, two days. How it is done: U2 OS cells treated with 20 μM CLK8 and 0.5% DMSO were used for fractionation analysis. The 4×10^5 was suspended in 500 ul cytosolic lysis buffer (10 mM HEPES pH 7,9, 10 mM KCl, 0.1 mM EDTA, 0.05% NP40 with protease inhibitors) and incubated on ice for 10 minutes. The lysate was centrifuged for 3 minutes at 3000 rpm at 4° C. The resulting supernatant was centrifuged one more time and supernatant collected as cytosolic fraction. On the other hand, the resulting pellet from lysate centrifugation was suspended in nuclear lysis buffer (20 mM HEPES pH 7.9, 0.4 M NaCl, 1 mM EDTA, 10% glycerol with protease inhibitors) and sonicated 2 times 10 seconds with 60% power. After centrifuge at 15 000 g for 5 minutes at 4° C., supernatant was collected as nuclear fraction. Collected fractions were used for Western Blot analysis. Fractionation efficiency was checked with Western Blot by using tubulin (Sigma T9026) as cytosolic marker and Histone-H3 (abcam ab1791) as nuclear marker.

For another experiment, the target named is T1, CLOCK (Homo sapiens, UniProt O15516).
T1 sequence (O15516 1-846): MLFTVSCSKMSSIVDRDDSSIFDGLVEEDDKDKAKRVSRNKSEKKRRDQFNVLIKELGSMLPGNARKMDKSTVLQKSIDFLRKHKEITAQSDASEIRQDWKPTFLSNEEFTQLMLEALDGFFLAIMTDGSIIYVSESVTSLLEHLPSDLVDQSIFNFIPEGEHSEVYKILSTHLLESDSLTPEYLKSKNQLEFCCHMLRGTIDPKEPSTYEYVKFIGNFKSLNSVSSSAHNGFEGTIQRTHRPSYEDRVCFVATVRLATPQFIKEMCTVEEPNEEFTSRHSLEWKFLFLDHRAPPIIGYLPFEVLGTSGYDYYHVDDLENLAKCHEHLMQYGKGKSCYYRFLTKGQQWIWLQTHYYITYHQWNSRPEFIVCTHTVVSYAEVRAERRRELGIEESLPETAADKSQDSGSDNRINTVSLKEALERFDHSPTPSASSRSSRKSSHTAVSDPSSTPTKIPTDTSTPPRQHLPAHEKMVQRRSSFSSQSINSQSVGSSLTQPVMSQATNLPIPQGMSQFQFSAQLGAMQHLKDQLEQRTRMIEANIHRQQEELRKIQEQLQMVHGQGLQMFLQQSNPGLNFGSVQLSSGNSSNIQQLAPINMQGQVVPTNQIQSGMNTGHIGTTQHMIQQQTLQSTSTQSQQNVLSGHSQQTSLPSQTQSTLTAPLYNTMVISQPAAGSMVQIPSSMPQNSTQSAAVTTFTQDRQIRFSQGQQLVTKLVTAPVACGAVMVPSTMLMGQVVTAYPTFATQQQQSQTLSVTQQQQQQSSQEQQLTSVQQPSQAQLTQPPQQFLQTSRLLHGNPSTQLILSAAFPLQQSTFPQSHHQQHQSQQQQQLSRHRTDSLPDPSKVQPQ
Briefly: Pull-down assay with biotinylated CLK8, lysate of HEK293T cells overexpressing CLOCK and BMAL1. Also on record: expressed in transfected cells; host or cells: HEK293T. Conditions: 200 μM competitor. It is filed as binding. How it is done: HEK293T cells were transiently transfected with tag-free hsClock and mBmal1. After 48 hours of transfection, cells were harvested and whole cell lysate was prepared with ice-cold lysis buffer (50 mM Tris-HCl pH 7.4, 2 mM EDTA, 1 mM MgCl2, 0.2% NP-40, 1 mM sodium orthovanadate, 1 mM sodium fluoride and protease inhibitor cocktail) followed by centrifugation at 7000×g at 4° C. for 10 minutes. Lysate was diluted with ice-cold 2× binding buffer (100 mM Tris-HCl pH 7.4, 300 mM NaCl, 0.2% NP-40, 2 mM sodium orthovanadate, 2 mM sodium fluoride, and protease inhibitor cocktail) 27. The lysate was divided into three fractions to be treated with either DMSO, or 20 μM of bitoinylated-CLK8 (bait) with or without 200 μM CLK8 (competitor). The lysate-compound samples were incubated and mixed continuously at 4° C. for 1 hour. After equilibrating NeutroAvidin Agarose resin (Thermo Scientific) with lysis buffer, the lysate-compound mixture and NeutroAvidin Agarose resin were incubated and mixed continuously at 4° C. overnight. The beads were washed four times with 1× binding buffer. To elute the bound proteins Laemmli buffer was added and samples were heated at 95° C. for 7 minutes. The pull-down precipitates were subjected to SDS-PAGE and transferred to a PVDF membrane (Millipore). […]

As for `CC1(C)CCc2c(cc(OCC(=O)Nc3ccccc3C(N)=O)c3c(-c4ccccc4)cc(=O)oc23)O1` [CLK8, 2-[2-({12,12-dimethyl-4-oxo-6-phenyl-3,11-dioxatricyclo [8.4.0.0,2,7]tetradeca-1,5,7,9-tetraen-8-yl}oxy)acetamido] benzamide], the “level of PER2, NPAS2, BMAL1 and CRY1” value in experiment [1] is given as “comparable to the control samples”. In addition, the “binding to CLOCK (competition with bait)” value at CLOCK is on record as “specifically binds to CLOCK”.
